Results as given in ChEMBL document CHEMBL3885881, “DrugMatrix”.

Organism: Rattus norvegicus
Assay: DrugMatrix - Regimen: Daily Repeat
Type: toxicity, organism-based, Sprague-Dawley
Set-up: regimen Daily Repeat, gender Male, age 6-8 weeks
Settings: in vivo, po, route oral GAVAGE, […]; for ABSOLUTE BASOPHIL / ABSOLUTE EOSINOPHIL / ABSOLUTE LYMPHOCYTE / ABSOLUTE MONOCYTE / ABSOLUTE SEGMENTED NEUTROPHIL / BASOPHIL / EOSINOPHIL / ERYTHROCYTE COUNT / HEMATOCRIT / HEMOGLOBIN / LEUKOCYTE COUNT / LYMPHOCYTE / MEAN CORPUSCULAR HEMOGLOBIN / MEAN CORPUSCULAR HEMOGLOBIN CONCENTRATION / MEAN CORPUSCULAR VOLUME / MONOCYTE / NEUTROPHIL / NUCLEATED RED BLOOD CELLS / PLATELET COUNT: tissue Blood; for ALANINE AMINOTRANSFERASE / ALBUMIN / ALKALINE PHOSPHATASE / ASPARTATE AMINOTRANSFERASE / BLOOD UREA NITROGEN / CARBON DIOXIDE / CHLORIDE / CHOLESTEROL / CREATINE PHOSPHOKINASE / CREATININE / GLUCOSE / LACTATE DEHYDROGENASE / LIPASE / PHOSPHORUS / POTASSIUM / SODIUM / TOTAL BILIRUBIN / URIC ACID / TOTAL PROTEIN: tissue Plasma
[1] = 0.3 mg/kg, 120 h, dose level Low, time 5 day
[2] = 150 mg/kg, 72 h, dose level High, time 3 day
[3] = 150 mg/kg, 120 h, dose level High, time 5 day

C[C@]12CC[C@@H]3c4ccc(O)cc4CC[C@H]3[C@@H]1CC[C@@H]2O [ESTRADIOL]
ABSOLUTE BASOPHIL [1]: 0 CELLS/uL
ABSOLUTE EOSINOPHIL [1]: 0 CELLS/uL
ABSOLUTE LYMPHOCYTE [1]: 8421.33 CELLS/uL
ABSOLUTE MONOCYTE [1]: 178.67 CELLS/uL
ABSOLUTE SEGMENTED NEUTROPHIL [1]: 333.33 CELLS/uL
BASOPHIL [1]: 0%
EOSINOPHIL [1]: 0%
ERYTHROCYTE COUNT [1]: 5.67 x10E6/uL
HEMATOCRIT [1]: 36.43%
HEMOGLOBIN [1]: 14.13 G/DL
LEUKOCYTE COUNT [1]: 8.93 x10E3/uL
LYMPHOCYTE [1]: 94.33%
MEAN CORPUSCULAR HEMOGLOBIN [1]: 24.93 pg
MEAN CORPUSCULAR HEMOGLOBIN CONCENTRATION [1]: 38.77 G/DL
MEAN CORPUSCULAR VOLUME [1]: 64.2 fL
MONOCYTE [1]: 2%
NEUTROPHIL [1]: 3.67%
NUCLEATED RED BLOOD CELLS [1]: 0 /100WBC
PLATELET COUNT [1]: 1136.67 x10E3/uL
ALANINE AMINOTRANSFERASE [1]: 62 u/L
ALBUMIN [1]: 4.23 G/DL
ALKALINE PHOSPHATASE [1]: 381.67 u/L
ASPARTATE AMINOTRANSFERASE [1]: 80.33 u/L
BLOOD UREA NITROGEN [1]: 11 mg/dL
CARBON DIOXIDE [1]: 31.67 mmol/L
CHLORIDE [1]: 97 MEQ/L
CHOLESTEROL [1]: 52.67 mg/dL
CREATINE PHOSPHOKINASE [1]: 324.67 u/L
CREATININE [1]: 0.15 mg/dL
GLUCOSE [1]: 162.67 mg/dL
LACTATE DEHYDROGENASE [1]: 166.67 u/L
LIPASE [1]: 10.33 u/L
PHOSPHORUS [1]: 9.63 mg/dL
POTASSIUM [1]: 5.76 MEQ/L
SODIUM [1]: 143 MEQ/L
TOTAL BILIRUBIN [1]: 0.2 mg/dL
URIC ACID [1]: 0.43 mg/dL
ABSOLUTE BASOPHIL [2]: 0 CELLS/uL
ABSOLUTE EOSINOPHIL [2]: 0 CELLS/uL
ABSOLUTE LYMPHOCYTE [2]: 6738.33 CELLS/uL
ABSOLUTE MONOCYTE [2]: 100.67 CELLS/uL
ABSOLUTE SEGMENTED NEUTROPHIL [2]: 527.67 CELLS/uL
BASOPHIL [2]: 0%
EOSINOPHIL [2]: 0%
ERYTHROCYTE COUNT [2]: 5.96 x10E6/uL
HEMATOCRIT [2]: 36.23%
HEMOGLOBIN [2]: 13.83 G/DL
LEUKOCYTE COUNT [2]: 7.37 x10E3/uL
LYMPHOCYTE [2]: 91.67%
MEAN CORPUSCULAR HEMOGLOBIN [2]: 23.37 pg
MEAN CORPUSCULAR HEMOGLOBIN CONCENTRATION [2]: 38.27 G/DL
MEAN CORPUSCULAR VOLUME [2]: 61 fL
MONOCYTE [2]: 1.33%
NEUTROPHIL [2]: 7%
NUCLEATED RED BLOOD CELLS [2]: 0 /100WBC
PLATELET COUNT [2]: 934 x10E3/uL
ALANINE AMINOTRANSFERASE [2]: 64.33 u/L
ALBUMIN [2]: 3.8 G/DL
ALKALINE PHOSPHATASE [2]: 760.67 u/L
ASPARTATE AMINOTRANSFERASE [2]: 90 u/L
BLOOD UREA NITROGEN [2]: 10 mg/dL
CARBON DIOXIDE [2]: 33 mmol/L
CHLORIDE [2]: 100 MEQ/L
CHOLESTEROL [2]: 22.67 mg/dL
CREATINE PHOSPHOKINASE [2]: 373.33 u/L
CREATININE [2]: 0.22 mg/dL
GLUCOSE [2]: 140.33 mg/dL
LACTATE DEHYDROGENASE [2]: 223.67 u/L
LIPASE [2]: 12.33 u/L
PHOSPHORUS [2]: 8.83 mg/dL
SODIUM [2]: 145.57 MEQ/L
TOTAL BILIRUBIN [2]: 0.23 mg/dL
TOTAL PROTEIN [2]: 5.87 G/DL
URIC ACID [2]: 0.3 mg/dL
ABSOLUTE BASOPHIL [3]: 0 CELLS/uL
ABSOLUTE EOSINOPHIL [3]: 0 CELLS/uL
ABSOLUTE LYMPHOCYTE [3]: 9738.33 CELLS/uL
ABSOLUTE MONOCYTE [3]: 202.33 CELLS/uL
ABSOLUTE SEGMENTED NEUTROPHIL [3]: 759.33 CELLS/uL
BASOPHIL [3]: 0%
EOSINOPHIL [3]: 0%
ERYTHROCYTE COUNT [3]: 6.23 x10E6/uL
HEMATOCRIT [3]: 39.2%
HEMOGLOBIN [3]: 14.6 G/DL
LEUKOCYTE COUNT [3]: 10.7 x10E3/uL
LYMPHOCYTE [3]: 91%
MEAN CORPUSCULAR HEMOGLOBIN [3]: 23.43 pg
MEAN CORPUSCULAR HEMOGLOBIN CONCENTRATION [3]: 37.27 G/DL
MEAN CORPUSCULAR VOLUME [3]: 62.93 fL
MONOCYTE [3]: 2%
NEUTROPHIL [3]: 7%
NUCLEATED RED BLOOD CELLS [3]: 0 /100WBC
PLATELET COUNT [3]: 1292.33 x10E3/uL
ALANINE AMINOTRANSFERASE [3]: 55.33 u/L
ALBUMIN [3]: 3.87 G/DL
ALKALINE PHOSPHATASE [3]: 654.67 u/L
ASPARTATE AMINOTRANSFERASE [3]: 67 u/L
BLOOD UREA NITROGEN [3]: 7.67 mg/dL
CARBON DIOXIDE [3]: 29.33 mmol/L
CHLORIDE [3]: 99.67 MEQ/L
CHOLESTEROL [3]: 14 mg/dL
CREATINE PHOSPHOKINASE [3]: 271.33 u/L
CREATININE [3]: 0.13 mg/dL
GLUCOSE [3]: 125.67 mg/dL
LACTATE DEHYDROGENASE [3]: 192.67 u/L
LIPASE [3]: 7.67 u/L
POTASSIUM [3]: 5.37 MEQ/L
SODIUM [3]: 145.23 MEQ/L
TOTAL BILIRUBIN [3]: 0.2 mg/dL
TOTAL PROTEIN [3]: 6.67 G/DL
URIC ACID [3]: 0.3 mg/dL
